The values below come from US10131663B2, “Chemical compounds” (AstraZeneca AB, priority 2016, dated 2018).

The target of series [1] is Estrogen Receptor (ERα) in MCF-7 cells (Homo sapiens (Human), UniProt P03372). The series can be described thus: MCF-7 ER down-regulation assay (immuno-fluorescence). The format is cell-based. Here is the method: The Echo uses acoustic technology to perform direct microplate-to-microplate transfers of DMSO compound solutions to assay plates. […] Cells were fixed at room temperature for 20 mins before being washed two times with 250 μL PBS/Proclin (PBS with a Biocide preservative) using a BioTek platewasher, 40 μL of PBS/Proclin was then added to all wells and the plates stored at 4° C. The fixing method described above was carried out on the Integrated Echo 2 workcell. Immunostaining was performed using an automated AutoElisa workcell. […] The plates were incubated overnight at 4° C. […] The mean total intensity was normalized for cell number giving the total intensity per cell. The data was exported into a suitable software package (such as Origin) to perform curve fitting analysis.

In series [2] the target is recombinant human Estrogen Receptor alpha ligand binding domain (ER alpha-LBD (GST)) (Homo sapiens (Human), UniProt P03372). Nature of the series: ERα binding assay (LanthaScreen TR-FRET competition). Conditions: TR-FRET, displacement of Fluormone ES2. Here is the method:
The ability of compounds to bind to isolated Estrogen Receptor Alpha Ligand binding domain (ER alpha-LBD (GST)) was assessed in competition assays using a LanthaScreen™ Time-Resolved Fluorescence Resonance Energy Transfer (TR-FRET) detection end-point. […] The assay principle is that ER alpha-LBD (GST) is added to a fluorescent ligand to form a receptor/fluorophore complex. A terbium-labelled anti-GST antibody (Product code PV3551) is used to indirectly label the receptor by binding to its GST tag, and competitive binding is detected by a test compound's ability to displace the fluorescent ligand, resulting in a loss of TR-FRET signal between the Tb-anti-GST antibody and the tracer. The assay was performed as follows with all reagent additions carried out using the Beckman Coulter BioRAPTR FRD microfluidic workstation: • 1. Acoustic dispense 120 nL of the test compound into a black low volume 384 well assay plates. • 2. Prepare 1×ER alpha-LBD/Tb-antiGST Ab in ES2 screening buffer and incubate for 15 minutes. • 3. Dispense 6 μL of the 1×[…]/Tb-anti-GST Ab reagent into each well of the assay plate followed by 6 μL of Fluorophore reagent into each well of the assay plate • 4. Cover the assay plate to protect the reagents from light and evaporation, and incubate at room temperature for 4 hours. • 5.
TR-FRET dose response data obtained with each compound was exported into a suitable software package (such as Origin or Genedata) to perform curve fitting analysis. Competitive ER alpha binding was expressed as an IC50 value.
For orientation: TR-FRET usually uses a lanthanide donor and a delayed reading to cut background.

The nature of series [3]: log D (shake flask, 1-octanol/aqueous buffer). The format is physicochemical. From the text: The lipophilicity of a drug is an important physical property which may influence many biological and metabolic properties of a compound, for example the absorption, distribution, metabolism, excretion and toxicity profiles of a compound. The distribution coefficient between 1-octanol and aqueous buffer, Log DO/W, at pH 7.4, is the most commonly used measurement of the lipophilicity of a compound. The current method for measurement of Log DO/W is based on the traditional shake flask technique, but with the modification of measuring compounds in mixtures of ten at a time using UPLC with quantitative mass spectrometry (MS) as a method to measure the relative octanol and aqueous concentrations. […] An additional QC sample Caffeine, with low Log D, are used and randomly placed in all runs. The method has been thoroughly validated against the previous shake flask methodologies.

The nature of series [4]: Thermodynamic solubility (shake-flask). Type of series: physicochemical. To be noted: aqueous phosphate buffer pH 7.4, 24 hours. Here is the method: The thermodynamic solubility of a research compound is measured under standard conditions. It is a shake-flask approach that uses 10 mM DMSO solutions which are supplied from the Compound Managements liquid store and is a high throughput method. The dried compounds are equilibrated in an aqueous phosphate buffer (pH 7.4) for 24 hours at 25° C., the portion with the dissolved compound is then separated from the remains. The solutions are analyzed and quantified using UPLC/MS/MS, QC-samples are incorporated in each assay-run to ensure the quality of the assay.

Series [5] can be described thus: Human plasma protein binding (equilibrium dialysis). The format is in vitro ADME. To be noted: dialysis 18 hours. The method, then:
The automated equilibrium dialysis assay in human plasma uses the RED (Rapid Equilibrium Dialysis) Device and sample handling. The assay generally runs over two to three days including delivery of results. After dialysis for 18 hours, plasma and buffer samples are prepared for analysis by liquid chromatography and mass spectrometry. Samples are generally tested in singlicates and quantified by LC/MSMS by using a 7-point calibration curve in plasma. The compounds are pooled together in plasma pools up to 10 compounds. Three reference compounds are used in each run, Propranolol, Metoprolol and Warfarin. Warfarin is used as a control in each pool and Propranolol and Metoprolol are placed randomly in each run. An in-house Excel macro is used for preparation of files for the robot and the mass spectrometer and is also used for the calculations of fraction unbound (fu %) in plasma.

The mark [6] stands for this setting: pH 7.4, 1-octanol/aqueous buffer.
Where [7] appears, read: aqueous phosphate buffer, 25 °C, pH 7.4, aqueous buffer, thermodynamic from solid.
[8] abbreviates: 1-octanol/aqueous buffer, pH 7.4, pH 7.4, 1-octanol/aqueous buffer.

pIC50: −log10 of the molar value. ≈ marks a conversion by molar mass, not a printed value.

Broadly, the pIC50 is the IC50 on a negative log10 scale, so that one unit is a factor of ten. Usually solubility stands for the concentration that dissolves in the medium under given conditions. A lower solubility goes with a poorly soluble substance. Broadly, the logD is the decadic logarithm of the distribution of all forms, ionised or not, between an organic phase and buffer at a given pH. A low value points to lower lipophilicity.

Estrogen Receptor (ERα) in MCF-7 cells, sequence (P03372 whole entry): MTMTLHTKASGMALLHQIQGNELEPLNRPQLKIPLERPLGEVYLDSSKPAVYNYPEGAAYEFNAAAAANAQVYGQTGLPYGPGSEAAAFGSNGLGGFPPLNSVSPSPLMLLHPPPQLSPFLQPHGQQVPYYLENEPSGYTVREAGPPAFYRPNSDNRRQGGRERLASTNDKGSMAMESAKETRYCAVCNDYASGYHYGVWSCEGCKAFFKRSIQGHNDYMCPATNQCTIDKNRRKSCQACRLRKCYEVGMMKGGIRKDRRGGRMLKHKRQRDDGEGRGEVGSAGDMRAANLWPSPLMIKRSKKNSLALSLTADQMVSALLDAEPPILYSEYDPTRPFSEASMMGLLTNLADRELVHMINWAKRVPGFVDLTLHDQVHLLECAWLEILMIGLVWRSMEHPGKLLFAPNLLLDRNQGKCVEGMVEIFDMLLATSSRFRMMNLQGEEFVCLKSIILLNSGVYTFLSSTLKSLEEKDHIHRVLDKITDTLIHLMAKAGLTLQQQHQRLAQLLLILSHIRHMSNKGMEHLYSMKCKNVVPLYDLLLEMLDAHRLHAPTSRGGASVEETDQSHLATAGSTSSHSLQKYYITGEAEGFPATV
recombinant human Estrogen Receptor alpha ligand binding domain (ER alpha-LBD (GST)), sequence (P03372 307-554): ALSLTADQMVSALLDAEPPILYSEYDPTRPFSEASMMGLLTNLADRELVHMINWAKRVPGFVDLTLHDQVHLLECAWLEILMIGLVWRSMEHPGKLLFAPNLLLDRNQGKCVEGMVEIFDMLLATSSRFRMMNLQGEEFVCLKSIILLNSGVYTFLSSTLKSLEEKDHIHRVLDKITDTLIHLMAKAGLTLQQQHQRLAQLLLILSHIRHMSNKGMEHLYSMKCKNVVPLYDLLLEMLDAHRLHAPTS

For `C[C@@H]1Cc2c(ccc3[nH]ncc23)[C@@H](c2ccc(N(C)C3CN(CCCF)C3)cn2)N1CC(F)F` [Example 43, 6-((6S,8R)-7-(2,2-difluoroethyl)-8-methyl-6,7,8,9-tetrahydro-3H-pyrazolo[4,3-f]isoquinolin-6-yl)-N-(1-(3-fluoropropyl)azetidin-3-yl)-N-methylpyridin-3-amine], the negative-log IC50 (pIC50) in series [1] was 9.60; in series [2] it was 8.39.
In the case of `COc1cc(NC2CN(CCCF)C2)ccc1[C@@H]1c2ccc3[nH]ncc3c2C[C@@H](C)N1CC(C)F` (single isomer, unassigned) [Example 68], the “LogD pH 7.4” value in series [3] (setting [6]) is recorded as 2.4. In addition, the solubility at 24 h in series [4] (25° C.) came to 561 µM (≈ 271 µg/mL). In addition, the “Human plasma protein binding (% free)” value in series [5] was determined as 37 % free.
With `C[C@@H]1Cc2c(ccc3[nH]ncc23)[C@@H](c2ccc(NC3CN(CCCF)C3)cn2)N1CC(C)(C)F` [Example 63, 6-((6S,8R)-7-(2-fluoro-2-methylpropyl)-8-methyl-6,7,8,9-tetrahydro-3H-pyrazolo[4,3-f]isoquinolin-6-yl)-N-(1-(3-fluoropropyl)azetidin-3-yl)pyridin-3-amine], the log distribution coefficient (logD) in series [3] (setting [6]) worked out at 3.2. Also, in series [4] (setting [7]), the solubility at 24 h is 870 µM (≈ 408 µg/mL). Besides, the “Human plasma protein binding (% free)” value in series [5] turned out to be 10 % free.
Turning to `CC(F)CN1[C@H](c2ccc(NC3CN(CCCF)C3)cn2)c2ccc3[nH]ncc3c2C[C@H]1C` (single isomer, unassigned) [Example 66], in series [3] (setting [6]), the “LogD pH 7.4” value came out at 2.3. In series [4] (25° C.), this compound returned a solubility at 24 h of 931 µM (≈ 423 µg/mL).
In the case of `COC[C@](C)(F)CN1[C@H](c2ccc(NC3CN(CCCF)C3)cc2OC)c2ccc3[nH]ncc3c2C[C@H]1C` (single isomer, unassigned) [Example 15], the “LogD pH 7.4” value in series [3] (setting [6]) is 2.5. In series [4] (25° C.), this compound yielded a solubility at 24 h of 821 µM (≈ 433 µg/mL). Further, the “Human plasma protein binding (% free)” value in series [5] is listed as 34 % free.
`COCC(C)(F)CN1[C@H](c2ccc(NC3CN(CCCF)C3)cc2OC)c2ccc3[nH]ncc3c2C[C@H]1C` (stereo partly drawn) [Example 4, N-(4-((6S,8R)-7-(2-fluoro-3-methoxy-2-methylpropyl)-8-methyl-6,7,8,9-tetrahydro-3H-pyrazolo[4,3-f]isoquinolin-6-yl)-3-methoxyphenyl)-1-(3-fluoropropyl)azetidin-3-amine] displayed a log distribution coefficient (logD) in series [3] (setting [8]) of 2.7. The solubility at 24 h in series [4] (setting [7]) is 991 µM (≈ 523 µg/mL). In addition, the “Human plasma protein binding (% free)” value in series [5] was 21 % free.
Taken in the same sequence, the figures for `COC[C@](C)(F)CN1[C@H](c2ccc(OC3CN(CCCF)C3)cc2OC)c2ccc3[nH]ncc3c2C[C@H]1C` (single isomer, unassigned) [Example 12] were 3.9, 77 µM (≈ 40.7 µg/mL) and 2.7 % free.
In series [3] (setting [6]), `FCCCN1CC(Nc2ccc([C@@H]3c4ccc5[nH]ncc5c4C[C@@H](C(F)F)N3CC(F)F)nc2)C1` [Example 51, 6-((6S,8S)-7-(2,2-difluoroethyl)-8-(difluoromethyl)-6,7,8,9-tetrahydro-3H-pyrazolo[4,3-f]isoquinolin-6-yl)-N-(1-(3-fluoropropyl)azetidin-3-yl)pyridin-3-amine] came in with a logD of 2.7. The same compound gave a solubility at 24 h in series [4] (setting [7]) of over 1000 µM. Further, the “Human plasma protein binding (% free)” value in series [5] is reported as 28 % free.
In series [3] (setting [8]), `CC(F)CN1[C@H](c2ccc(NC3CN(CCCF)C3)cn2)c2ccc3[nH]ncc3c2C[C@H]1C` (single isomer, unassigned) [Example 65] registered a log distribution coefficient (logD) of 2.4. Further, in series [4] (setting [7]), the solubility at 24 h was determined as 790 µM (≈ 359 µg/mL).
In series [3] (setting [8]), `COc1cc(NC2CN(CCCF)C2)cnc1[C@@H]1c2ccc3[nH]ncc3c2C[C@@H](C)N1CC(F)(F)F` [Example 37, N-(1-(3-fluoropropyl)azetidin-3-yl)-5-methoxy-6-((6S,8R)-8-methyl-7-(2,2,2-trifluoroethyl)-6,7,8,9-tetrahydro-3H-pyrazolo[4,3-f]isoquinolin-6-yl)pyridin-3-amine] showed a logD of 2.6. This compound also had a solubility at 24 h in series [4] (setting [7]) of 961 µM (≈ 487 µg/mL). Moreover, in series [5], the “Human plasma protein binding (% free)” value is on record as 25 % free.
On the same counts, the results for `C[C@@H]1Cc2c(ccc3[nH]ncc23)[C@@H](c2ccc(NC3CN(CCCF)C3)nc2)N1CC1(F)CC1` [Example 54, 5-((6S,8R)-7-((1-fluorocyclopropyl)methyl)-8-methyl-6,7,8,9-tetrahydro-3H-pyrazolo[4,3-f]isoquinolin-6-yl)-N-(1-(3-fluoropropyl)azetidin-3-yl)pyridin-2-amine] are 1.4, over 1000 µM and 57 % free.
Taken in the same sequence, the figures for `COC[C@](C)(F)CN1[C@H](c2ccc(NC3CN(CCCF)C3)cc2OC)c2ccc3[nH]ncc3c2C[C@H]1C` (single isomer, unassigned) [Example 14] were 2.6, 897 µM (≈ 473 µg/mL) and 16 % free.
As to `COC[C@](C)(F)CN1[C@H](c2ccc(OC3CN(CCCF)C3)cc2OC)c2ccc3[nH]ncc3c2C[C@H]1C` (single isomer, unassigned) [Example 13], in series [3] (setting [6]), the “LogD pH 7.4” value is recorded as 4. Besides, the solubility at 24 h in series [4] (25° C.) is listed as 78 µM (≈ 41.2 µg/mL). Also, the “Human plasma protein binding (% free)” value in series [5] is on record as 6.4 % free.
In turn, `CC1(C)Cc2c(ccc3[nH]ncc23)[C@@H](c2ccc(NC3CN(CCCF)C3)cn2)N1CC(F)(F)F` [Example 72, (S)-6-(8,8-dimethyl-7-(2,2,2-trifluoroethyl)-6,7,8,9-tetrahydro-3H-pyrazolo[4,3-f]isoquinolin-6-yl)-N-(1-(3-fluoropropyl)azetidin-3-yl)pyridin-3-amine] yielded a log distribution coefficient (logD) in series [3] (setting [6]) of 3.3. The solubility at 24 h in series [4] (setting [7]) came out at 738 µM (≈ 362 µg/mL). Also, the “Human plasma protein binding (% free)” value in series [5] was 14 % free.
As to `C[C@@H]1Cc2c(ccc3[nH]ncc23)[C@@H](c2ncc(NC3CN(CCCF)C3)cc2F)N1CC(F)(F)CF` [Example 71, 5-fluoro-N-(1-(3-fluoropropyl)azetidin-3-yl)-6-((6S,8R)-8-methyl-7-(2,2,3-trifluoropropyl)-6,7,8,9-tetrahydro-3H-pyrazolo[4,3-f]isoquinolin-6-yl)pyridin-3-amine], the logD in series [3] (setting [6]) is 3.2. Further, the solubility at 24 h in series [4] (setting [7]) was found to be 666 µM (≈ 339 µg/mL).
In series [3] (setting [6]), `C[C@@H]1Cc2c(ccc3[nH]ncc23)[C@@H](c2ccc(NC3CN(CCCF)C3)cn2)N1CC(C)(F)F` [Example 70, 6-((6S,8R)-7-(2,2-difluoropropyl)-8-methyl-6,7,8,9-tetrahydro-3H-pyrazolo[4,3-f]isoquinolin-6-yl)-N-(1-(3-fluoropropyl)azetidin-3-yl)pyridin-3-amine] registered a logD of 2.9. This compound registered a solubility at 24 h in series [4] (setting [7]) of 857 µM (≈ 405 µg/mL). In addition, the “Human plasma protein binding (% free)” value in series [5] amounted to 24 % free.
In series [3] (setting [8]), `COc1cc(NC2CN(CCCF)C2)ccc1[C@@H]1c2ccc3[nH]ncc3c2C[C@@H](C)N1CC(C)F` (single isomer, unassigned) [Example 67] yielded a logD of 2.7. Besides, in series [4] (setting [7]), the solubility at 24 h worked out at 914 µM (≈ 442 µg/mL). Besides, in series [5], the “Human plasma protein binding (% free)” value worked out at 19 % free.
